The results in this text go back to ChEMBL document CHEMBL3525901 (Drug Metab Dispos, 2012).

SMILES strings stand for the structures.

Assay type in all cases: ADME, organism-based
Series [1] can be described thus: AUC (0 to infinity) in rat. Details: time infinity. The note with it: plasma.
The nature of series [2]: Ratio of unbound AUC in extracellular fluid to unbound AUC in plasma of Wistar rat at 10 mg/kg, sc by HPLC-MS/MS analysis. More on the design: dose 10 mg/kg, route subcutaneous. The note with it: read-out: Ratio AUC.
A short description of series [3]: Cmax in Wistar rat extracellular fluid at 10 mg/kg, sc by HPLC-MS/MS analysis. Details: dose 10 mg/kg, route subcutaneous.
The nature of series [4]: Ratio of steady state drug level in extracellular fluid to unbound drug level in plasma of Wistar rat at 10 mg/kg, sc by HPLC-MS/MS analysis. More on the design: dose 10 mg/kg, route subcutaneous.
Series [5] is described as follows: AUC (0 to infinity) in Wistar rat extracellular fluid at 10 mg/kg, sc by HPLC-MS/MS analysis. Details: time infinity, dose 10 mg/kg, route subcutaneous.
For series [6], the system named is Brain. Description: Unbound volume of distribution in Wistar rat brain at 10 mg/kg, sc by HPLC-MS/MS analysis. More on the design: dose 10 mg/kg, route subcutaneous. The note with it: in vivo.
Series [7] concerns Plasma. Description: Unbound Cmax in Wistar rat plasma at 10 mg/kg, sc by HPLC-MS/MS analysis. Details: dose 10 mg/kg, route subcutaneous. The note with it: in vivo.
Series [8] in a line: Unbound Tmax in Wistar rat plasma at 10 mg/kg, sc by HPLC-MS/MS analysis. Details: dose 10 mg/kg, route subcutaneous. The note with it: read-out: fTmax (converted).
In series [9] the test system is Plasma. The series is described as follows: Unbound AUC (0 to infinity) in Wistar rat plasma at 10 mg/kg, sc by HPLC-MS/MS analysis. Details: dose 10 mg/kg, route subcutaneous. The note with it: in vivo.
Series [10] is described as follows: Fraction unbound in Wistar rat plasma at 10 mg/kg, sc by HPLC-MS/MS analysis. More on the design: dose 10 mg/kg, route subcutaneous.
Series [11] is described as follows: Tmax in Wistar rat extracellular fluid at 10 mg/kg, sc by HPLC-MS/MS analysis. More on the design: dose 10 mg/kg, route subcutaneous.
A short description of series [12]: Ratio of steady state drug level in extracellular fluid to unbound drug level in plasma of Wistar rat at 3 mg/kg, sc by HPLC-MS/MS analysis. More on the design: dose 3 mg/kg, route subcutaneous.
Series [13] has as its system Plasma. Description: Unbound AUC (0 to infinity) in Wistar rat plasma at 3 mg/kg, sc by HPLC-MS/MS analysis. Details: dose 3 mg/kg, route subcutaneous. The note with it: in vivo.
Series [14] concerns Brain. The series is described as follows: Unbound volume of distribution in Wistar rat brain at 3 mg/kg, sc by HPLC-MS/MS analysis. Details: dose 3 mg/kg, route subcutaneous. The note with it: in vivo.
Series [15] deals with Rattus norvegicus. Description: Absorption rate constant in Wistar rat extracellular fluid at 3 mg/kg, sc by HPLC-MS/MS analysis. Details: dose 3 mg/kg, route subcutaneous. The note with it: in vivo.
Series [16] is described as follows: Unbound Tmax in Wistar rat plasma at 3 mg/kg, sc by HPLC-MS/MS analysis. More on the design: dose 3 mg/kg, route subcutaneous. The note with it: read-out: fTmax (converted).
The nature of series [17]: Fraction unbound in Wistar rat plasma at 3 mg/kg, sc by HPLC-MS/MS analysis. More on the design: dose 3 mg/kg, route subcutaneous.
The test system of series [18] is Plasma. The series is described as follows: Unbound Cmax in Wistar rat plasma at 3 mg/kg, sc by HPLC-MS/MS analysis. Details: dose 3 mg/kg, route subcutaneous. The note with it: in vivo.
Series [19] can be described thus: Cmax in Wistar rat extracellular fluid at 3 mg/kg, sc by HPLC-MS/MS analysis. More on the design: dose 3 mg/kg, route subcutaneous.
The nature of series [20]: Tmax in Wistar rat extracellular fluid at 3 mg/kg, sc by HPLC-MS/MS analysis. Details: dose 3 mg/kg, route subcutaneous.
Series [21] can be described thus: Systemic clearance in Wistar rat extracellular fluid at 3 mg/kg, sc by HPLC-MS/MS analysis. More on the design: dose 3 mg/kg, route subcutaneous.
Series [22] in a line: Ratio of unbound AUC in extracellular fluid to unbound AUC in plasma of Wistar rat at 3 mg/kg, sc by HPLC-MS/MS analysis. Details: dose 3 mg/kg, route subcutaneous. The note with it: read-out: Ratio AUC.
Series [23] deals with Rattus norvegicus. Description: Central volume of distribution in Wistar rat extracellular fluid at 3 mg/kg, sc by HPLC-MS/MS analysis. Details: dose 3 mg/kg, route subcutaneous. The note with it: in vivo.
A short description of series [24]: AUC (0 to infinity) in Wistar rat extracellular fluid at 3 mg/kg, sc by HPLC-MS/MS analysis. Details: time infinity, dose 3 mg/kg, route subcutaneous.
Series [25] can be described thus: Ratio of uptake clearance to efflux clearance in Wistar rat brain extracellular fluid at 3 mg/kg, sc by HPLC-MS/MS analysis. The note with it: in vivo. More on the design: dose 3 mg/kg, route subcutaneous.
The nature of series [26]: Equilibration rate constant in Wistar rat brain extracellular fluid at 3 mg/kg, sc by HPLC-MS/MS analysis. The note with it: in vivo. More on the design: dose 3 mg/kg, route subcutaneous.
In series [27] the test system is Rattus norvegicus. The series is described as follows: Absorption rate constant in Wistar rat extracellular fluid at […], sc by HPLC-MS/MS analysis. Details: dose 1.6 mg/kg, route subcutaneous. The note with it: in vivo.
Series [28] in a line: Unbound Tmax in Wistar rat plasma at […], sc by HPLC-MS/MS analysis. More on the design: dose 1.6 mg/kg, route subcutaneous. The note with it: read-out: fTmax (converted).
Series [29] is described as follows: Systemic clearance in Wistar rat extracellular fluid at […], sc by HPLC-MS/MS analysis. Details: dose 1.6 mg/kg, route subcutaneous.
Series [30] can be described thus: Ratio of unbound AUC in extracellular fluid to unbound AUC in plasma of Wistar rat at […], sc by HPLC-MS/MS analysis. The note with it: read-out: Ratio AUC. More on the design: dose 1.6 mg/kg, route subcutaneous.
In series [31] the test system is Plasma. The series is described as follows: Unbound AUC (0 to infinity) in Wistar rat plasma at […], sc by HPLC-MS/MS analysis. Details: dose 1.6 mg/kg, route subcutaneous. The note with it: in vivo.
The nature of series [32]: Tmax in Wistar rat extracellular fluid at […], sc by HPLC-MS/MS analysis. Details: dose 1.6 mg/kg, route subcutaneous.
Series [33] can be described thus: Equilibration rate constant in Wistar rat brain extracellular fluid at […], sc by HPLC-MS/MS analysis. Details: dose 1.6 mg/kg, route subcutaneous. The note with it: in vivo.
Series [34] can be described thus: Fraction unbound in Wistar rat plasma at […], sc by HPLC-MS/MS analysis. Details: dose 1.6 mg/kg, route subcutaneous.
Series [35] can be described thus: AUC (0 to infinity) in Wistar rat extracellular fluid at […], sc by HPLC-MS/MS analysis. More on the design: dose 1.6 mg/kg, route subcutaneous, time infinity.
Series [36] can be described thus: Ratio of steady state drug level in extracellular fluid to unbound drug level in plasma of Wistar rat at […], sc by HPLC-MS/MS analysis. More on the design: dose 1.6 mg/kg, route subcutaneous.
The nature of series [37]: Cmax in Wistar rat extracellular fluid at […], sc by HPLC-MS/MS analysis. Details: dose 1.6 mg/kg, route subcutaneous.
The test system of series [38] is Rattus norvegicus. The series is described as follows: Central volume of distribution in Wistar rat extracellular fluid at […], sc by HPLC-MS/MS analysis. Details: dose 1.6 mg/kg, route subcutaneous. The note with it: in vivo.
Series [39] has as its system Plasma. The series is described as follows: Unbound Cmax in Wistar rat plasma at […], sc by HPLC-MS/MS analysis. Details: dose 1.6 mg/kg, route subcutaneous. The note with it: in vivo.
A short description of series [40]: Ratio of uptake clearance to efflux clearance in Wistar rat brain extracellular fluid at […], sc by HPLC-MS/MS analysis. More on the design: dose 1.6 mg/kg, route subcutaneous. The note with it: in vivo.
The test system of series [41] is Brain. Description: Unbound volume of distribution in Wistar rat brain at […], sc by HPLC-MS/MS analysis. More on the design: dose 1.6 mg/kg, route subcutaneous. The note with it: in vivo.
Series [42] in a line: Systemic clearance in Wistar rat extracellular fluid at 10 mg/kg, sc by HPLC-MS/MS analysis. Details: dose 10 mg/kg, route subcutaneous.
Series [43] is described as follows: Ratio of uptake clearance to efflux clearance in Wistar rat brain extracellular fluid at 10 mg/kg, sc by HPLC-MS/MS analysis. Details: dose 10 mg/kg, route subcutaneous. The note with it: in vivo.
The nature of series [44]: Equilibration rate constant in Wistar rat brain extracellular fluid at 10 mg/kg, sc by HPLC-MS/MS analysis. More on the design: dose 10 mg/kg, route subcutaneous. The note with it: in vivo.
Series [45] has as its system Rattus norvegicus. The series is described as follows: Absorption rate constant in Wistar rat extracellular fluid at 10 mg/kg, sc by HPLC-MS/MS analysis. The note with it: in vivo. Details: dose 10 mg/kg, route subcutaneous.
Series [46] has as its system Rattus norvegicus. The series is described as follows: Central volume of distribution in Wistar rat extracellular fluid at 10 mg/kg, sc by HPLC-MS/MS analysis. More on the design: dose 10 mg/kg, route subcutaneous. The note with it: in vivo.

Turning to `CN1CCN(C2=Nc3cc(Cl)ccc3Nc3ccccc32)CC1` [CLOZAPINE], the AUC(0-inf) in series [1] was 5.39 µM·h; in series [5], 0.0443 µM·h. Further, the Kp uu is 0.15 in series [2] and 0.13 in series [4]. In addition, in [3], the highest level (Cmax) was 6 nM. In addition, the Vdu in the series with Brain [6] was found to be 70 mL/g. In the series with Plasma [7], the fCmax is 77 nM. The Tmax in [8] is 1 h; in series [11] it was 4 h. The fAUC with Plasma [9] is 19732 nM·min. In series [10], the fraction unbound is 0.061.

For `Cc1nc2n(c(=O)c1CCN1CCC(c3noc4cc(F)ccc34)CC1)CCCC2` [RISPERIDONE], the results for the Kp uu in [12] and in [22] were 0.21 and 0.15, respectively. For the same compound, the fAUC in the series on Plasma [13] was found to be 24022 nM·min. In the series on Brain [14], this compound registered a Vdu of 10 mL/g. Further, the ka in the series on Rattus norvegicus [15] was 0.03 min⁻¹. The Tmax in series [16] is 0.883 h; in [20], 1.25 h. In addition, the fraction unbound in [17] amounted to 0.16. In addition, the fCmax in the series with Plasma [18] worked out at 181 nM. In [19], this compound returned a maximum concentration (Cmax) of 20 nM. For the same compound, the CL/F in [21] amounted to 307 mL/min/kg. Further, in the series with Rattus norvegicus [23], the Vd was found to be 21 L/kg. The compound also had an AUC(0-inf) in series [24] of 0.0591 µM·h. The Ratio in series [25] was found to be 0.14. In addition, in [26], the Ke stood at 0.006 min⁻¹.

`CN(C)CCC[C@@]1(c2ccc(F)cc2)OCc2cc(C#N)ccc21` [ESCITALOPRAM]: the ka in the series with Rattus norvegicus [27] amounted to 0.02 min⁻¹. For the same compound, the values for the Tmax in series [28] and in series [32] were 0.433 h and 2 h, respectively. The compound also returned a CL/F in series [29] of 277 mL/min/kg. For the same compound, the Kp uu in series [30] was determined as 0.86; in series [36], 1.06. The compound further registered a fAUC in the series on Plasma [31] of 13888 nM·min. In series [33], this compound had a Ke of 0.015 min⁻¹. In addition, the fraction unbound in series [34] was 0.5. The same compound showed an area under the curve AUC(0-inf) in [35] of 0.197 µM·h. Also, the highest level in series [37] (Cmax) was 62 nM. This compound came in with a Vd in the series on Rattus norvegicus [38] of 4.1 L/kg. The compound further returned a fCmax in the series on Plasma [39] of 131 nM. The Ratio in series [40] came out at 1.24. In the series on Brain [41], the Vdu turned out to be 18 mL/g.

Turning to `Clc1ccc2c(c1)N=C(N1CCNCC1)c1ccccc1N2` [N-DESMETHYLCLOZAPINE], in series [42], the CL/F was found to be 1600 mL/min/kg. Further, in series [43], the Ratio is listed as 0.05. Besides, the values for the Kp uu in series [2] and in [4] were 0.03 and 0.04, respectively. In [3], this compound displayed a Cmax of 2 nM. In series [44], this compound showed a Ke of 0.006 min⁻¹. The compound further had an AUC(0-inf) in [5] of 0.0134 µM·h. Also, the Vdu with Brain [6] amounted to 82 mL/g. The compound further had a fCmax in the series on Plasma [7] of 90 nM. Moreover, the Tmax was 1.05 h in series [8] and 4.63 h in series [11]. Further, the fAUC with Plasma [9] amounted to 32296 nM·min. Moreover, in series [10], the free fraction (fraction unbound) was 0.11. For the same compound, the ka with Rattus norvegicus [45] is 0.5 min⁻¹. In the series on Rattus norvegicus [46], this compound showed a Vd of 607 L/kg.
